Results on three molecules are retold here after article PMC10609081, “In Vivo Trafficking of the Anticancer Drug Tris(8-Quinolinolato) Gallium (III) (KP46) by Gallium-68/67 PET/SPECT Imaging” (Molecules, 2023).

Read-outs that look alike come from different tables or passages of the source.

A short description of data set [1]: Distribution/partition coefficients (logD, logP), shake flask with gamma counting. Type of data set: physicochemical. Particulars: octanol/water, tracer level, mean ± SD. The method, then:
Tracer-level [^68Ga]KP46 and [^68Ga]Ga-acetate solutions (5–20 µL, 0.3–0.5 MBq) were added to a pre-equilibrated mixture (500 µL/500 µL) of octanol/water (for logP measurement) or octanol/PBS (for logD7.4 measurement). Samples were vortexed for two minutes in a Multi Vortex Mixer V-32 (Grant Bio). From each layer, a sample of 200 µL was taken and its radioactivity measured using a gamma counter.

Data set [2] is described as follows: ICP-MS analysis of 69Ga in tissues after oral bulk dose. The following applies: bulk (group D), 4 h. Type of data set: in vivo, mice. As for the experimental part:
Oral [^68/67Ga]KP46: The protocol for oral administration experiments reported here was devised on the basis of pilot experiments described in Supplementary Materials (Figure S12). For short-term (up to 4 h) studies with ^68Ga, awake (nonanaesthetised, to avoid suppressive effects of anaesthesia on digestive tract activity) mice that had been fasted for up to 14 h were given [^68Ga]KP46 (5–13 MBq) (group C, “tracer”, n = 3) or [^68Ga]KP46 and KP46 (5–8.5 MBq) (group D, “bulk”, n = 3) by oral gavage. The dose given orally to group D animals, prepared as described above, was 0.4 μmol in 400 μL, molar activity ca. 25 MBq/μmol. […] After separation of layers, a sample of 400 µL from each layer was transferred to fresh Eppendorf tubes and analysed with a gamma counter. Stomach content (72–77 mg), small intestine content (35–88 mg), and large intestine content (86–100 mg) samples from each mouse were analysed similarly by adding them directly to Eppendorf tubes containing a pre-equilibrated mixture of octanol (500 µL) and water (500 µL) before vortexing and centrifuging at 10,000 rpm for 10 min at 4 °C. From each layer, 430 µL was transferred to fresh Eppendorf tubes and analysed with a gamma counter; the solid residues were also counted. […]
expressed as mean ± SD (n = 3). […]

Details of data set [3]: method as in PMID 16938349, PMID 21305117. Particulars: bulk drug, spectrophotometric; cited from earlier work.
On the set-up of data set [4]: method as in PMID 8687115. Particulars: healthy mice, 2 weeks daily oral doses; cited from earlier work.
The conditions of data set [5]: single oral administration with bulk gallium chloride (100 nmol), after five days; cited from earlier work.
Data set [6] concerns the target T1, human apo-transferrin (apo-Tf) (Homo sapiens, UniProt P02787).
T1 construct: purchased Sigma Aldrich
Nature of the data set: Binding to apo-transferrin by size exclusion chromatography (PD MidiTrap G-25). Format: in vitro ADME. Particulars: incubated with apo-Tf in the presence of bicarbonate, sampled over 48 h. As for the experimental part: Solutions of human apo-transferrin (apo-Tf, 2 mg/mL) and human serum albumin (HSA, 50 mg/mL) (both purchased from Sigma Aldrich) were dissolved in aqueous NaHCO3 (5 mM, pH = 8) and PBS (pH = 7.4), respectively. An amount of 1 MBq of tracer-level [^68Ga]KP46 (13–20 µL) or [^68Ga]gallium acetate (20–25 µL) was added to 1.2 mL of the apo-Tf solution and to a similar apo-Tf-free NaHCO3 solution (control). Similarly, [^68Ga]KP46 and [^68Ga]gallium acetate solutions were added to 1.5 mL PBS containing HSA or HSA-free PBS (control). The samples were incubated for 60 min at 37 °C (pH = 7–7.5). From each mixture, 0.5 mL was loaded into PD MidiTrap G-25 size exclusion chromatography cartridges that were preconditioned with 8 mL of NaHCO3 (5 mM) (for apo-Tf binding) or PBS (for HSA binding). Fractions (0.5 mL) were collected and counted with a Wallac gamma counter. Protein absorbance at 280 nm was measured using a Nanodrop spectrophotometer. To investigate the speciation of the Ga–KP46 complex in the presence of apo-Tf at later time points (up to 48 h), the experiment was repeated with ^67Ga.

Data set [7] in a line: Octanol extraction of serum, urine and gut contents after oral radiolabelled KP46 (speciation). Type of data set: in vivo, mice. The following applies: oral, tracer level (group E), 24 h. As for the experimental part:
Serum and urine from the “tracer level” group (E) were subjected to octanol extraction 24 h postadministration to determine the fraction of ^67Ga that may have survived in the form of [^67Ga]KP46 after absorption from the gut.
Oral [^68/67Ga]KP46: The protocol for oral administration experiments reported here was devised on the basis of pilot experiments described in Supplementary Materials (Figure S12). For short-term (up to 4 h) studies with ^68Ga, awake (nonanaesthetised, to avoid suppressive effects of anaesthesia on digestive tract activity) mice that had been fasted for up to 14 h were given [^68Ga]KP46 (5–13 MBq) (group C, “tracer”, n = 3) or [^68Ga]KP46 and KP46 (5–8.5 MBq) (group D, “bulk”, n = 3) by oral gavage. The dose given orally to group D animals, prepared as described above, was 0.4 μmol in 400 μL, molar activity ca. 25 MBq/μmol. The mice were fasted for three hours before being anaesthetised and PET/CT scanned dynamically for one hour (see below for scanning protocol). After scanning, mice in both groups were culled by neck dislocation while still anaesthetised four hours post-oral administration for organ harvesting and gamma counting. Samples of blood, urine and contents of stomach, small intestine and large intestine (the organs/tissue with measurable activity; tumours were not included as they were insufficiently radioactive) from the mice in group C were used for octanol extraction (shake-flask method) to separate water-soluble (released) and lipid-soluble (intact KP46) ^68Ga. Serum samples were prepared by placing blood samples in a serum separator tube (brand VS367954, Fisher Scientific Ltd., Loughborough, UK) and centrifuging at 3000 rpm for 10 min. Serum (200–300 µL) and urine samples (150–180 µL, taken from the excised bladders) were directly added to Eppendorf tubes containing a pre-equilibrated mixture of octanol (500 µL) and water (500 µL). The tubes were vortexed for two minutes on a Multi Vortex Mixer V-32 (Grant Bio). After separation of layers, a sample of 400 µL from each layer was transferred to fresh Eppendorf tubes and analysed with a gamma counter. Stomach content (72–77 mg), small intestine content (35–88 mg), and large intestine content (86–100 mg) samples from each mouse were analysed similarly by adding them directly to Eppendorf tubes containing a pre-equilibrated mixture of octanol (500 µL) and water (500 µL) before vortexing and centrifuging at 10,000 rpm for 10 min at 4 °C. From each layer, 430 µL was transferred to fresh Eppendorf tubes and analysed with a gamma counter; the solid residues were also counted. Tissues from mice in group D were used after radioactive decay for measurements of nonradioactive ^69Ga content.

A short description of data set [8]: SPECT imaging and ex vivo biodistribution 24 h and 48 h after oral [67Ga]KP46, tracer (group E) and bulk (group F). Particulars: n = 4. Type of data set: in vivo, mice. The method, then:
The tracer-level samples for oral administration were prepared in the same manner but with 20 μL of KP46-free DMSO in place of the KP46 solution in DMSO.
All animal experiments were performed in accordance with the Animals (Scientific Procedures) Act, 1986, with protocols approved by the Animal Welfare and Ethical Review Body for King’s College London under project and personal licences approved by the UK Home Office. Tumour xenograft studies were performed on female NSG mice or female athymic nude mice after injecting them subcutaneously in the right shoulder with 2.5 × 10^6 A375 cells in 100 µL of PBS. All in vivo studies were conducted between 14 and 24 days after inoculation, with tumour volumes between 100 mm^3 and 580 mm^3 (see Supplementary Materials, Figure S11).
For long-term (up to 48 h) studies, a similar protocol was followed, but SPECT imaging using ^67Ga was repeated at intervals up to 48 h instead of PET imaging up to only 4 h postadministration. Athymic nude nu/nu mice bearing A375 xenografts were fasted for 7–14 h and divided in two groups: E (n = 4) and F (n = 4). Awake (nonanaesthetised) mice were orally administered with [^67Ga]KP46 (2–11 MBq, “tracer”, group E) or with [^67Ga]KP46 and KP46 (1–11 MBq, “bulk”, group F, given 0.4 μmol KP46 with molar activity ca. 15 MBq/μmol) and fasted for three hours. Mice in both groups were then anaesthetised and SPECT/CT scanned (see scanning protocol below) for one hour. Mice were then allowed to recover and feed. At 24 h postadministration, mice were reanaesthetised and rescanned, then group E mice were culled while still anaesthetised, and tissues were harvested for ex vivo gamma counting.
PET/CT images were acquired with a nanoScan® PET/CT (Mediso Medical Imaging Systems, Budapest, Hungary) scanner operating in list mode using a 400–600 keV energy window and a coincidence window of 1:3. CT scans were acquired for anatomical reference and attenuation correction (55 keV X-ray, exposure time 1000 ms, and 360 projections and pitch 1). PET projection data were reconstructed using the Tera-tomo® software package provided with the scanner —a Monte Carlo-based fully 3D iterative algorithm with four iterations, six subsets, and 0.4 mm isotropic voxel size; corrections for attenuation, scatter, and dead-time were enabled. The data were then visualised and quantified using VivoQuant^© v.2.50 (InviCro, Boston, MA, USA) software. SPECT/CT imaging was performed on a NanoSPECT/CT Silver Upgrade scanner (Mediso; 4 heads, 4 × 9 1.0 mm multipinhole collimators) in helical scanning mode using energy windows centred around 93.20 ± 20% keV (primary), 184.60 ± 20% keV (secondary), and 300.00 ± 20% keV (tertiary). […] Images were coregistered and analysed using VivoQuant v2.50 (InviCro, Needham, MA, USA).

T1 sequence (P02787 20-698): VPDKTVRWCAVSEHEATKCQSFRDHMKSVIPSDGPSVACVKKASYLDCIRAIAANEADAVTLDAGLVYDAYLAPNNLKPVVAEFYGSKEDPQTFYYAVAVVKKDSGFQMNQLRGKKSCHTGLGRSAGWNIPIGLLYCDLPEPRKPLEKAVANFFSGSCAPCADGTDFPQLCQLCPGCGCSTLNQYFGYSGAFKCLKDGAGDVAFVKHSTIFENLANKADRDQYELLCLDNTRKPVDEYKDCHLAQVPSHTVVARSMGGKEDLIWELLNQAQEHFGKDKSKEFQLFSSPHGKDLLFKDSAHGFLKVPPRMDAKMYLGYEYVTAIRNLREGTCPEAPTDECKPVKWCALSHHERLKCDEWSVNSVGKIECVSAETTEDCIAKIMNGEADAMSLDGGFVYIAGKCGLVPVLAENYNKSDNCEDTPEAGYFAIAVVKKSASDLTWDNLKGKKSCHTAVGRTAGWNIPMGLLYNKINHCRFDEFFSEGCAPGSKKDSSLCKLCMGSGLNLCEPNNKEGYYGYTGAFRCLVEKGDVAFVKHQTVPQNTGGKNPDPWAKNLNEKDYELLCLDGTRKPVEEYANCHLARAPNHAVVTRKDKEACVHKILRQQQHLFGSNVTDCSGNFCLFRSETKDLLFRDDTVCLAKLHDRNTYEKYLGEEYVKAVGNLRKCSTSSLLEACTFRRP

With `[Ga+3].[O-]c1cccc2cccnc12.[O-]c1cccc2cccnc12.[O-]c1cccc2cccnc12` [KP46, tris(8-quinolinolato)gallium (III)], the “logP(octanol/water)” value is reported as 2.33 ± 0.28 in data set [1] and 0.88 in data set [3]. Besides, the “69Ga delivered to tumour by ICP-MS” value in data set [2] turned out to be 0.17 ± 0.1 %ID/g. Also, the “69Ga in large intestine by ICP-MS” value in data set [2] is 23.7 ± 9.2 %ID/g. Further, in data set [4], the “accumulation of gallium in liver” value is 0.08 ± 0.04 %ID/g.

With `O=C([O-])CC(O)(CC(=O)[O-])C(=O)[O-].[67Ga+3]` [[^67Ga]gallium citrate], the “original measured activity remaining in the mice” value in data set [5] is listed as 0.3 ± 0.08%.

Regarding `[67Ga+3].[O-]c1cccc2cccnc12.[O-]c1cccc2cccnc12.[O-]c1cccc2cccnc12` [[^67Ga]KP46], the “binding of 67Ga to apo-Tf” value in data set [6] is recorded as “very minor binding”. Besides, in data set [7], the “serum radioactivity extracted into octanol phase” value is reported as “Less than 6%” and the “urine activity extracted into octanol phase” value is “less than 3%”. Moreover, in data set [8] (bulk level (group F), 48 h), the “uptake in bone, ex vivo” value was determined as 2.55 ± 1.82 %ID/g; the “uptake in liver, ex vivo” value is 1.34 ± 1.01 %ID/g; the “uptake in tumour, ex vivo” value is given as 1.57 ± 0.48 %ID/g. Moreover, in data set [8] (tracer level (group E), 24 h), the “activity in faeces, ex vivo” value is listed as 3.0 ± 2.9 %ID/g.
